No end group written: not given here. *: point of attachment. Octanoyl = CCCCCCCC(=O)*
What was measured:
[1] = system: animals which did not ingest food after administration of ghrelin; test: Example 4: improvement in animals which did not ingest food after administration of ghrelin; format: in vivo, canines and felines
Source text: Diseases: Rib fracture, chronic renal failure, falling accident, infectious respiratory syndrome, hemobartonellosis, FIV, FELV infection, CPV infection, habu bite, diarrhea, vomiting, mammary gland tumor, traffic accident, fracture surgery, urinary retention, renal failure, urethroplasty, urinary retention, forelimb trauma Number of animals: 15 Activity improved: 11/13 (2, not evaluated; 2 unchanged) GPT value improved: 3/3 GOT value improved: 2/2 BUN value improved: 2/2 CRE value improved: 2/2 CPK value improved: 1/1 ALP value improved: 1/1 WBC value improved: 1/1 (decreased) PLT value improved: 2/2 Body temperature decreased: 2/2

[2] = system: animals under medical treatment with physical conditions worsened by various diseases; test: Example 2: single dose of ghrelin in animals under medical treatment for pathological conditions other than a surgery; format: in vivo, canines and felines; details: for Activity (vigor): animals improved/animals evaluated / Activity (vigor): response rate / Biochemical tests: animals improved/animals evaluated / Biochemical tests: response rate / Hematology tests: animals improved/animals evaluated / Hematology tests: response rate / Body temperature: animals improved/animals evaluated / Body temperature: response rate: single dose
Experimental: In these Examples, a canine-derived ghrelin (a peptide compound in which a side chain hydroxyl group of the serine residue at the 3rd position from the amino terminus is acylated with an n-octanoyl group in SEQ ID NO: 1) was used as ghrelin. The canine-derived ghrelin was chemically synthesized and then lyophilized, and a canine-derived ghrelin for administration containing 0.1, 0.3, 0.5, or 1 mg per vial of a canine-derived ghrelin was prepared.
To administer ghrelin to animals, the canine-derived ghrelin was dissolved to a concentration of 1 mg/2 mL in physiological saline and intravenously, subcutaneously, or intramuscularly injected after the dose was adjusted depending on the body weight.
Animals hospitalized in veterinary hospitals, particularly canines and felines, were used for treatment. These animals may or may not have undergone a surgery for treatment. The surgeries performed on the animals were pyometra surgery, surgical removal of a reproductive organ, surgical removal of mammary gland tumor, ovary cyst surgery, liver cell tumor surgery, disc hernia surgery, diaphragmatic hernia surgery, fracture surgery, gastrointestinal tract surgery, and urethroplasty.
Physical conditions in animals with various pathological conditions were examined by measuring parameters including activity (vigor), blood cell test values, biochemical test values, urinalysis, electrolyte tests, body weight, body temperature, the degree of anger or anxiety, respiratory rate, and the like to evaluate the effect of improving physical conditions in the animals. The effect was evaluated by comparing various evaluation parameters before and after administration.
The evaluation parameters used were activity (vigor), body temperature, hematology parameters (blood cell test values), serum biochemistry parameters (biochemical test values), the degree of anger or anxiety, and respiratory rate. […] The degree of anger or anxiety of an animal observed visually by an observer were also evaluated using the following criteria: 1. calm and accustomed to a health care professional, 2. able to be touched by but unaccustomed to a health care professional and restless, 3. wandering around or hiding in the kennel with anxiety, 4. able to be barely touched, and 5. too violent to be touched by a health care professional and tends to bite.
Ten animals had two or more diseases concurrently. The diseases including concurrent diseases were as follows: lower urological syndrome, urinary retention, infectious respiratory syndrome, chronic renal failure, osteoarthritis, chronic hepatitis, cystolithiasis, malnutrition, debility, jaundice, circulatory insufficiency, multiple organ failure, pulmonary edema, anemia, tabefaction, diarrhea, vomiting, wheezing, pyrexia, FIV, FELV infection, CPV infection, FVR, a liver disease, filariasis, hemobartonellosis, babesiosis, habu bite, anaphylaxis, a falling accident, rib fracture, and burn.
Of the animals with these diseases, the evaluation parameters recorded in medical records were as follows: activity (vigor) in 16 animals, biochemistry parameters (biochemical test values) in 11 animals, hematology parameters (blood cell test values) in three animals, and body temperature in one animal.

[3] = animals which did not ingest food
[4] = multiple organ failure, 1 animal
[5] = total, 18 animals with various diseases

For “GSS (n-octanoyl) FLSPEHQKLQQRKESKKPPAKLQPR (GSS(Octanoyl)FLSPEHQKLQQRKESKKPPAKLQPR; listed as Canis familiaris) [ghrelin, chemically synthesized, lyophilized]”, the “Activity improved: animals improved/animals evaluated” value ([1]; 15 animals which did not ingest food, 2 not evaluated, 2 unchanged) was 11/13, the “ALP value improved: animals improved/animals evaluated” value [1, 3] was 1/1 and the “BUN value improved: animals improved/animals evaluated” value [1, 3] was 2/2. For the same substance, the “Body temperature decreased: animals improved/animals evaluated” value [1, 3] was 2/2, the “CPK value improved: animals improved/animals evaluated” value [1, 3] was 1/1 and the “CRE value improved: animals improved/animals evaluated” value [1, 3] was 2/2. For the same substance, the “GOT value improved: animals improved/animals evaluated” value [1, 3] was 2/2, the “GPT value improved: animals improved/animals evaluated” value [1, 3] was 3/3 and the “PLT value improved: animals improved/animals evaluated” value [1, 3] was 2/2. For the same substance, the “WBC value improved (decreased): animals improved/animals evaluated” value [1, 3] was 1/1, the “Activity (vigor): animals improved/animals evaluated” value ([2]; accident etc., 3 animals) was 3/3 and the “Activity (vigor): response rate” value ([2]; accident etc., 3 animals) was 100%. For the same substance, the “Biochemical tests: animals improved/animals evaluated” value ([2]; accident etc., 3 animals) was 1/1, the “Biochemical tests: response rate” value ([2]; accident etc., 3 animals) was 100% and the “Activity (vigor): animals improved/animals evaluated” value ([2]; anaphylaxis, 1 animal) was 1/1. The “Activity (vigor): response rate” value ([2]; anaphylaxis, 1 animal) was 100%, the “Biochemical tests: animals improved/animals evaluated” value ([2]; anaphylaxis, 1 animal) was 1/1 and the “Biochemical tests: response rate” value ([2]; anaphylaxis, 1 animal) was 100%. For the same substance, the “Serum potassium (K) value after administration” value ([2]; animals in the Examples with decreased serum potassium after persistent poor physical conditions) was “improved”, the T-bil after administration ([2]; before administration 18.8 mg/dL) was 4.9 mg/dL and the “Activity (vigor): animals improved/animals evaluated” value ([2]; debility, 1 animal) was 1/1. The “Activity (vigor): response rate” value ([2]; debility, 1 animal) was 100%, the “Biochemical tests: animals improved/animals evaluated” value ([2]; debility, 1 animal) was 1/1 and the “Biochemical tests: response rate” value ([2]; debility, 1 animal) was 100%. The NH3 after administration ([2]; example, before administration 207 μg/dL) was 302 µg/dL, the Cre after administration ([2]; example, before administration 3.2 mg/dL) was 1.3 mg/dL and the BUN after administration ([2]; example, before administration 72.5 mg/dL) was 15.4 mg/dL. For the same substance, the “Body temperature after administration” value ([2]; example, before administration 40.2° C.) was 37.8 °C, the “White blood cell count after administration” value ([2]; example, before administration 278×10^2/μL) was 16700 µL⁻¹ and the ALP after administration ([2]; example, before administration 643 IU/L) was 291 IU/L. For the same substance, the GPT after administration ([2]; example, before administration 670 IU/L) was 260 IU/L, the CPK after administration ([2]; example, before administration 1166 IU/L) was 64 IU/L and the GOT after administration ([2]; example, before administration >1000 IU/L) was 187 IU/L. For the same substance, the “Activity (vigor) score after administration” value ([2]; example, before administration a score of 1 (unable to move), scale 1-7) was 3, the “Activity (vigor): animals improved/animals evaluated” value ([2]; infection, 8 animals) was 6/6 and the “Activity (vigor): response rate” value ([2]; infection, 8 animals) was 100%. The “Biochemical tests: animals improved/animals evaluated” value ([2]; infection, 8 animals) was 6/6, the “Biochemical tests: response rate” value ([2]; infection, 8 animals) was 100% and the “Hematology tests: animals improved/animals evaluated” value ([2]; infection, 8 animals) was 1/1. The “Hematology tests: response rate” value ([2]; infection, 8 animals) was 100%, the “Activity (vigor): animals improved/animals evaluated” value ([2]; liver disease, 1 animal) was 1/1 and the “Activity (vigor): response rate” value ([2]; liver disease, 1 animal) was 100%. For the same substance, the “Body temperature: animals improved/animals evaluated” value ([2]; liver disease, 1 animal) was 1/1, the “Body temperature: response rate” value ([2]; liver disease, 1 animal) was 100% and the “Activity (vigor): animals improved/animals evaluated” value [2, 4] was 1/1. For the same substance, the “Activity (vigor): response rate” value [2, 4] was 100%, the “Activity (vigor): animals improved/animals evaluated” value ([2]; renal dysfunction, 3 animals) was 3/3 and the “Activity (vigor): response rate” value ([2]; renal dysfunction, 3 animals) was 100%. For the same substance, the “Biochemical tests: animals improved/animals evaluated” value ([2]; renal dysfunction, 3 animals) was 1/1, the “Biochemical tests: response rate” value ([2]; renal dysfunction, 3 animals) was 100% and the “Hematology tests: animals improved/animals evaluated” value ([2]; renal dysfunction, 3 animals) was 2/2. For the same substance, the “Hematology tests: response rate” value ([2]; renal dysfunction, 3 animals) was 100%, the “Activity (vigor): animals improved/animals evaluated” value [2, 5] was 16/16 and the “Activity (vigor): response rate” value [2, 5] was 100%. For the same substance, the “Biochemical tests: animals improved/animals evaluated” value [2, 5] was 11/11, the “Biochemical tests: response rate” value [2, 5] was 100% and the “Body temperature: animals improved/animals evaluated” value [2, 5] was 1/1. For the same substance, the “Body temperature: response rate” value [2, 5] was 100%, the “Hematology tests: animals improved/animals evaluated” value [2, 5] was 3/3 and the “Hematology tests: response rate” value [2, 5] was 100%.

From US9078868B2, “Therapeutic agent for accelerating recovery of animal under medical treatment” (UNIVERSITY OF MIYAZAKI, priority 2010, dated 2015)
